Assay results as given in US9586931B2 (Merck Sharp & Dohme Corp., priority 2012, dated 2017).
“And” between values parts separate entries of the source, which are not always exact repeats. Equal entries are not always repeated.

Biological target: T1, recombinant human GST-Syk (Homo sapiens, UniProt P43405)
T1 construct: purchased Carna Biosciences 08-176
Test: Homogeneous Time-Resolved Fluorescence (HTRF) assay for the recombinant human Syk enzyme
Format: biochemical
Details: recombinant human GST-Syk 5 pM, ATP 25 μM, 10-dose titration 10 μM to 0.508 nM; read-out: rhSYK Activity IC50
Summary of the method: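 Detection used time-resolved fluorescence 30 min after adding a quench mix (40 mM EDTA, 15 mM Tris pH 7.5, 0.01% Tween 20) containing 2 nM Europium anti-pTyr antibody and 70 nM streptavidin-APC. This followed 45 min of room-temperature peptide phosphorylation by recombinant GST-tagged human Syk.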

SMILES | IC50
Cc1cc(Nc2nccc(C(F)(F)F)n2)cc(-c2cn(CC(N)=O)nn2)c1 [Example 5.79, 2-[4-(3-methyl-5-{[4-(trifluoromethyl)pyrimidin-2-yl]amino}phenyl)-1H-1,2,3-triazol-1-yl]acetamide] | 73.8 nM and 81.8 nM
Cc1cc(Nc2cc(C(F)(F)F)ccn2)nc(-c2cn([C@H](C)C(=O)NCC(N)=O)nn2)c1 [Example 1.21, (2R)-N-(2-amino-2-oxoethyl)-2-[4-(4-methyl-6-{[4-(trifluoromethyl)pyridin-2-yl]amino}pyridin-2-yl)-1H-1,2,3-triazol-1-yl]propanamide] | 23.1 nM
COC(=O)[C@@H]1CCCN1C(=O)[C@@H](C)n1cc(-c2cc(C)cc(Nc3cc(C(F)(F)F)ccn3)n2)nn1 [Example 1.55, methyl 1-{(2R)-2-[4-(4-methyl-6-{[4-(trifluoromethyl)pyridin-2-yl]amino}pyridin-2-yl)-1H-1,2,3-triazol-1-yl]propanoyl}prolinate] | 449 nM
Cc1cc(Nc2cc(C(F)(F)F)ccn2)nc(-c2cn(CC(O)C(C)(C)C)nn2)c1 (centres unmarked) [Example 4.25, 3,3-dimethyl-1-[4-(4-methyl-6-{[4-(trifluoromethyl)pyridin-2-yl]amino}pyridin-2-yl)-1H-1,2,3-triazol-1-yl]butan-2-ol] | 12.1 nM
Cc1cc(Nc2nccc(C(F)(F)F)n2)cc(-c2cn(CC3(O)CCOCC3)nn2)c1 [Example 4.14, 4-{[4-(3-methyl-5-{[4-(trifluoromethyl)pyrimidin-2-yl]amino}phenyl)-1H-1,2,3-triazol-1-yl]methyl}tetrahydro-2H-pyran-4-ol] | 48.1 nM
COC(=O)[C@@H](C)Cn1cc(-c2cc(C)cc(Nc3cc(C(F)(F)F)ccn3)n2)nn1 [Example 5.86, methyl (2S)-2-methyl-3-[4-(4-methyl-6-{[4-(trifluoromethyl)pyridin-2-yl]amino}pyridin-2-yl)-1H-1,2,3-triazol-1-yl]propanoate] | 66.4 nM
Cc1cc(Nc2nccc(C)n2)cc(-c2cn(C[C@](C)(O)CO)nn2)c1 (single isomer, unassigned) [Example 21.1, 2-Methyl-3-(4-(3-methyl-5-((4-methylpyrimidin-2-yl)amino)phenyl)-1H-1,2,3-triazol-1-yl)propane-1,2-diol] | 6.2 nM
CCCC(C(=O)OCC)n1cc(-c2cc(C)cc(Nc3cc(C(F)(F)F)ccn3)n2)nn1 (racemic) [Example 5.27, ethyl 2-[4-(4-methyl-6-{[4-(trifluoromethyl)pyridin-2-yl]amino}pyridin-2-yl)-1H-1,2,3-triazol-1-yl]pentanoate] | 146 nM
Cc1ccnc(Nc2cc(C)cc(-c3cn(C[C@@H](C)CO)nn3)n2)c1 [Example 5.15, (2R)-2-methyl-3-(4-{4-methyl-6-[(4-methylpyridin-2-yl)amino]pyridin-2-yl}-1H-1,2,3-triazol-1-yl)propan-1-ol] | 240 nM
CCOC(=O)C(C)(C)Cc1cn(-c2cc(C)cc(Nc3nccc(C(F)(F)F)n3)c2)nn1 [Example 15.15, ethyl 2,2-dimethyl-3-[1-(3-methyl-5-{[4-(trifluoromethyl)pyrimidin-2-yl]amino}phenyl)-1H-1,2,3-triazol-4-yl]propanoate] | 255 nM
Cc1cc(Nc2nccc(C(F)(F)F)n2)cc(-c2nnc(CCC(=O)O)[nH]2)c1 [Example 20.1, 3-(5-(3-Methyl-5-((4-(trifluoromethyl)pyrimidin-2-yl)amino)phenyl)-4H-1,2,4-triazol-3-yl)propanoic acid] | 7.7 nM
Cc1cc(Nc2nccc(C(F)(F)F)n2)cc(-c2cn(CC3CCO3)nn2)c1 (racemic) [Example 5.50, N-{3-methyl-5-[1-(oxetan-2-ylmethyl)-1H-1,2,3-triazol-4-yl]phenyl}-4-(trifluoromethyl)pyrimidin-2-amine] | 504 nM
Cc1cc(Nc2ncc(F)c(C(F)F)n2)cc(-c2cn(C3CCCCC3(C)O)nn2)c1 (single isomer, unassigned) [Example 7.25, 2-[4-(3-{[4-(difluoromethyl)-5-fluoropyrimidin-2-yl]amino}-5-methylphenyl)-1H-1,2,3-triazol-1-yl]-1-methylcyclohexanol] | 38.2 nM
Cc1cc(Nc2cc(C)c(Cl)cn2)nc(-c2cn(CC(C)(O)C(C)(C)O)nn2)c1 (centres unmarked) [Example 21.10, 1-(4-{6-[(5-chloro-4-methylpyridin-2-yl)amino]-4-methylpyridin-2-yl}-1H-1,2,3-triazol-1-yl)-2,3-dimethylbutane-2,3-diol] | 20.1 nM
Cc1cc(Nc2ncc(F)c(C(F)F)n2)cc(-c2cn(CC3OC(=O)NC3C)nn2)c1 (single isomer, unassigned) [Example 7.39, 5-{[4-(3-{[4-(difluoromethyl)-5-fluoropyrimidin-2-yl]amino}-5-methylphenyl)-1H-1,2,3-triazol-1-yl]methyl}-4-methyl-1,3-oxazolidin-2-one] | 12.3 nM
Cc1cc(Nc2cc(C(F)(F)F)ccn2)nc(-c2cn(C3CN(C(=O)C(C)O)CC3O)nn2)c1 (single isomer, unassigned) [Example 13.2, 1-[2-hydroxypropanoyl]-4-[4-(4-methyl-6-{[4-(trifluoromethyl)pyridin-2-yl]amino}pyridin-2-yl)-1H-1,2,3-triazol-1-yl]pyrrolidin-3-ol] | 23.6 nM
Cc1cc(Nc2nccc(C(F)(F)F)n2)cc(-n2cc(C3(O)CCNC(=O)CC3)nn2)c1 (centres unmarked) [Example 11.4, 5-hydroxy-5-[1-(3-methyl-5-{[4-(trifluoromethyl)pyrimidin-2-yl]amino}phenyl)-1H-1,2,3-triazol-4-yl]azepan-2-one] | 161 nM
Cc1cc(Nc2cc(C(F)(F)F)ccn2)nc(-c2cn(CC(C)(O)C(N)=O)nn2)c1 (centres unmarked) [Example 1.12, 2-hydroxy-2-methyl-3-[4-(4-methyl-6-{[4-(trifluoromethyl)pyridin-2-yl]amino}pyridin-2-yl)-1H-1,2,3-triazol-1-yl]propanamide] | 4.9 nM
Cc1cc(Nc2ncc(F)c(C(F)F)n2)cc(-c2cn(CC3OC(=O)NC34CC4)nn2)c1 (single isomer, unassigned) [Example 7.34, 7-{[4-(3-{[4-(difluoromethyl)-5-fluoropyrimidin-2-yl]amino}-5-methylphenyl)-1H-1,2,3-triazol-1-yl]methyl}-6-oxa-4-azaspiro[2.4]heptan-5-one] | 9.9 nM
Cc1cc(Nc2nccc(C(F)(F)F)n2)cc(-c2cn(CC3(O)CCC(C(=O)O)C(C)(C)C3)nn2)c1 (single isomer, unassigned) [Example 3.2, (R or S) 4-hydroxy-2,2-dimethyl-4-{[4-(3-methyl-5-{[4-(trifluoromethyl)pyrimidin-2-yl]amino}phenyl)-1H-1,2,3-triazol-1-yl]methyl}cyclohexanecarboxylic acid] | 46.8 nM
Cc1cc(Nc2nccc(C(F)F)n2)cc(-c2cn(CC3(O)CNC(=O)C3)nn2)c1 (single isomer, unassigned) [Example 31.1, 4-((4-(3-((4-(Difluoromethyl)pyrimidin-2-yl)amino)-5-methylphenyl)-1H-1,2,3-triazol-1-yl)methyl)-4-hydroxypyrrolidin-2-one] | 7.3 nM
Cc1cc(Nc2nccc(C(F)F)n2)cc(-c2cn(CC(C)(O)CO)nn2)c1 (single isomer, unassigned) [Example 21.8, 3-[4-(3-{[4-(difluoromethyl)pyrimidin-2-yl]amino}-5-methylphenyl)-1H-1,2,3-triazol-1-yl]-2-methylpropane-1,2-diol] | 13.1 nM
Cc1cc(Nc2cc(C(F)F)ccn2)nc(-c2cn(C(C)C(C)(O)CO)nn2)c1 (single isomer, unassigned) [Example 30.8, 3-[4-(6-{[4-(difluoromethyl)pyridin-2-yl]amino}-4-methylpyridin-2-yl)-1H-1,2,3-triazol-1-yl]-2-methylbutane-1,2-diol] | 1.2 nM
Cc1cc(Nc2cc(C(F)(F)F)ccn2)nc(-c2cn(CS(N)(=O)=O)nn2)c1 [Example 5.107, 1-[4-(4-methyl-6-{[4-(trifluoromethyl)pyridin-2-yl]amino}pyridin-2-yl)-1H-1,2,3-triazol-1-yl]methanesulfonamide] | 5.1 nM
Cc1cc(Nc2nccc(C(F)(F)F)n2)cc(-n2cc(C3(O)CCC(C(=O)O)C(C)(C)C3)nn2)c1 (centres unmarked) [Example 15.1, 4-hydroxy-2,2-dimethyl-4-[1-(3-methyl-5-{[4-(trifluoromethyl)pyrimidin-2-yl]amino}phenyl)-1H-1,2,3-triazol-4-yl]cyclohexanecarboxylic acid] | 6.5 nM
Cc1cc(Nc2cc(C(F)(F)F)ccn2)nc(-c2cn(C3CN(C(=O)CCC(N)=O)CC3O)nn2)c1 (centres unmarked) [Example 13.5, 4-{-3-hydroxy-4-[4-(4-methyl-6-{[4-(trifluoromethyl)pyridin-2-yl]amino}pyridin-2-yl)-1H-1,2,3-triazol-1-yl]pyrrolidin-1-yl}-4-oxobutanamide] | 15 nM
Cc1cc(Nc2nccc(C(F)(F)F)n2)cc(-c2cn(Cc3ccc(CC(=O)O)cc3)nn2)c1 [Example 5.2, (4-{[4-(3-methyl-5-{[4-(trifluoromethyl)pyrimidin-2-yl]amino}phenyl)-1H-1,2,3-triazol-1-yl]methyl}phenyl)acetic acid] | 4.4 nM
Cc1cc(Nc2nccc(C(F)F)n2)cc(-c2cn(CC3CNC(=O)C3)nn2)c1 (single isomer, unassigned) [Example 28.1, 4-((4-(3-((4-(difluoromethyl)pyrimidin-2-yl)amino)-5-methylphenyl)-1H-1,2,3-triazol-1-yl)methyl)pyrrolidin-2-one] | 8.4 nM

Same assay, conditions: rhSYK Activity IC50, recombinant human GST-Syk 5 pM, ATP 25 μM, 10-dose titration 10 μM to 0.508 nM

SMILES | IC50 [nM]
Cc1cc(Nc2nccc(C(F)(F)F)n2)cc(-c2cn(CCNC(N)=O)nn2)c1 [Example 5.56, 1-{2-[4-(3-methyl-5-{[4-(trifluoromethyl)pyrimidin-2-yl]amino}phenyl)-1H-1,2,3-triazol-1-yl]ethyl}urea] | 76.8
